Assay results: ChEMBL document CHEMBL3137547, “Open Source Malaria Deposition 2. http://malaria.ourexperiment.org”

system: Plasmodium falciparum; assay: OSM: Erythrocyte assay. NF54 with 3H-Hypoxanthine at 72hr time point.; assay type: functional, organism-based

Row | EC50 [nM] | Compound
1 | 547 | O=C(NC1CCc2cc(Cl)ccc21)c1cncc2nnc(-c3ccc(OC(F)F)cc3)n12 (configuration not stated)
2 | 4010 | [O-][n+]1cc(OCCc2ccc(F)c(F)c2)n2c(-c3ccc(OC(F)F)cc3)nnc2c1
3 | 10000 | O=C(NCC1CCOCC1)c1cncc2nnc(-c3ccc(OC(F)F)cc3)n12
4 | 2630 | Fc1ccc(CCOc2cncc3nnc(N4CCCCC4)n23)cc1F
5 | 10000 | O=C(c1cncc2nnc(-c3ccc(OC(F)F)cc3)n12)N1CCOCC1
6 | 10000 | O=C(c1cncc2nnc(-c3ccc(OC(F)F)cc3)n12)N1CCCC1
7 | 10000 | CS(=O)(=O)N1CCN(C(=O)c2cncc3nnc(-c4ccc(OC(F)F)cc4)n23)CC1
8 | 1360 | C[C@@H](NC(=O)c1cncc2nnc(-c3ccc(OC(F)F)cc3)n12)c1ccccc1
9 | 10000 | O=C(Nc1ccccn1)c1cncc2nnc(-c3ccc(OC(F)F)cc3)n12
10 | 3170 | O=C(NCCc1ccccc1)c1cncc2nnc(-c3ccc(OC(F)F)cc3)n12
11 | 470 | Fc1ccc(CCOc2cncc3nnc(N4Cc5ccccc5C4)n23)cc1F
12 | 3560 | O=C(c1cncc2nnc(-c3ccc(OC(F)F)cc3)n12)N1CCCC1c1ccccc1 (configuration not stated)
13 | 1060 | CN(Cc1cccc(Cl)c1)C(=O)c1cncc2nnc(-c3ccc(OC(F)F)cc3)n12
14 | 280 | FC(F)Oc1ccc(-c2nnc3cncc(CCCc4ccccc4)n23)cc1
15 | 10000 | FC(F)Oc1ccc(-c2nnc3cncc(N4CC(c5ccccc5)C4)n23)cc1
16 | 6920 | Cc1ncc(OCCc2ccc(F)c(F)c2)n2c(-c3ccc(OC(F)F)cc3)nnc12
17 | 280 | O=C(NCc1ccc(F)c(F)c1)c1cncc2nnc(-c3ccc(OC(F)F)cc3)n12
18 | 40 | CO[C@@H](COc1cncc2nnc(-c3ccc(C#N)cc3)n12)c1ccc(F)c(F)c1
19 | 110 | FC(F)Oc1ccc(-c2nnc3cncc(CN4Cc5ccccc5C4)n23)cc1

Row | EC50 [nM] | Compound
20 | 650 | O=C(Nc1ccc(F)c(F)c1)c1cncc2nnc(-c3ccc(OC(F)F)cc3)n12
21 | 320 | Fc1ccc(CCCc2cncc3nnc(-c4ccc(OC(F)F)cc4)n23)cc1F
22 | 2050 | Fc1ccc2c(c1)CCN2c1nnc2cncc(OCCc3ccc(F)c(F)c3)n12
23 | 44.1 | CN(C)[C@@H](COc1cncc2nnc(-c3ccc(OC(F)F)cc3)n12)c1ccc(F)c(F)c1
24 | 483 | Fc1ccc(C2(COc3cncc4nnc(-c5ccc(OC(F)F)cc5)n34)COC2)cc1F
25 | 115 | FC(F)Oc1ccc(-c2nnc3cncc(Oc4ccc5ccccc5c4)n23)cc1
26 | 383 | FC(F)Oc1ccc(-c2nnc3cncc(Oc4ccc(C(F)(F)F)cc4)n23)cc1
27 | 10000 | O=C(c1cncc2nnc(-c3ccc(OC(F)F)cc3)n12)N1CCc2cc(F)ccc21
28 | 9640 | FC(F)Oc1ccc(-c2nnc3cncc(Nc4ccc(Cl)c(Cl)c4)n23)cc1
29 | 3070 | FC(F)Oc1ccc(-c2nnc3cncc(Oc4cccc(Cl)c4)n23)cc1
30 | 24.3 | OCC(COc1cncc2nnc(-c3ccc(OC(F)F)cc3)n12)c1ccc(F)c(F)c1 (configuration not stated)
31 | 738 | CC(C)(C)c1ccc(Oc2cncc3nnc(-c4ccc(OC(F)F)cc4)n23)cc1
32 | 10000 | Fc1ccc(Nc2cn3c(-c4ccc(OC(F)F)cc4)nnc3cn2)cc1F
33 | 332 | O=C(NCc1cc(Cl)ccc1Cl)c1cncc2nnc(-c3ccc(OC(F)F)cc3)n12
34 | 10000 | Fc1ccc(Cc2nccn2-c2cncc3nnc(-c4ccc(OC(F)F)cc4)n23)cc1F
35 | 10000 | Fc1ccc(CCNc2cn3c(-c4ccc(OC(F)F)cc4)nnc3cn2)cc1
36 | 10000 | Cc1nn(-c2ccc(F)cc2)c(C)c1-c1nnc2cncc(Oc3ccc(Cl)c(Cl)c3)n12
37 | 1120 | O=C1[C@H](Oc2cncc3nnc(-c4ccc(OC(F)F)cc4)n23)[C@H](c2ccc(F)c(F)c2)N1C1CC1

Continued, compound first:

Row | Compound | EC50 [nM]
38 | Cc1nn(-c2ccc(F)cc2)c(C)c1-c1nnc2cncc(C(=O)Nc3ccnc(C(F)(F)F)c3)n12 | 10000
39 | Fc1ccc(C2(C(Oc3cncc4nnc(-c5ccc(OC(F)F)cc5)n34)C(F)(F)F)CC2)cc1F (configuration not stated) | 10000
40 | Cn1cc2ccc(Oc3cncc4nnc(-c5ccc(OC(F)F)cc5)n34)cc2n1 | 6200
41 | OC(COc1cncc2nnc(-c3ccc(OC(F)F)cc3)n12)c1ccc(F)c(F)c1 (configuration not stated) | 124
42 | Fc1ccc(CCOc2cnc(Cl)c3nnc(-c4ccc(OC(F)F)cc4)n23)cc1F | 160
43 | OCCc1cncc2nnc(-c3ccc(OC(F)F)cc3)n12 | 10000
44 | OCCC1CNCc2nnc(-c3ccc(OC(F)F)cc3)n21 (configuration not stated) | 8370
45 | Fc1ccc(N2CC(Oc3cncc4nnc(-c5ccc(OC(F)F)cc5)n34)C2)cc1F | 430
46 | FC(F)Oc1ccc(-c2nnc3cncc(N4CCC(c5ccccc5)C4)n23)cc1 (configuration not stated) | 2000
47 | O=C(NCc1cccc(Cl)c1)c1cncc2nnc(-c3ccc(OC(F)F)cc3)n12 | 250
48 | Fc1ccc(CCOc2cncc3nnc(C4CCOCC4)n23)cc1F | 10000
49 | FC(F)Oc1ccc(-c2nnc3n2CCNC3)cc1 | 10000
50 | CC(=O)N1CCC(c2nnc3cncc(OCCc4ccc(F)c(F)c4)n23)CC1 | 10000
51 | NCC(=O)N1CCn2c(nnc2-c2ccc(OC(F)F)cc2)C1 | 10000
52 | O=C(c1cncc2nnc(-c3ccc(OC(F)F)cc3)n12)N1Cc2ccccc2C1 | 10000
53 | O=C(NCc1ccc(Cl)cc1)c1cncc2nnc(-c3ccc(OC(F)F)cc3)n12 | 1340
54 | O=C(NCc1ccccc1Cl)c1cncc2nnc(-c3ccc(OC(F)F)cc3)n12 | 380
55 | Fc1ccc(CCOc2cncc3nnc(Nc4ccc(F)c(F)c4)n23)cc1F | 850
56 | Fc1ccc(OC2CN(c3cncc4nnc(-c5ccc(OC(F)F)cc5)n34)C2)cc1F | 4960
57 | O=C(c1cncc2nnc(-c3ccc(OC(F)F)cc3)n12)N1CCN(c2ccccn2)CC1 | 10000
58 | O=C(NCCN1CCOCC1)c1cncc2nnc(-c3ccc(OC(F)F)cc3)n12 | 10000
59 | C[C@H](NC(=O)c1cncc2nnc(-c3ccc(OC(F)F)cc3)n12)c1ccccc1 | 1600

Row | Compound | EC50 [nM]
60 | O=c1[nH]cc(OCCc2ccc(F)c(F)c2)n2c(-c3ccc(OC(F)F)cc3)nnc12 | 4130
61 | CCN(CC)c1ncc(OCCc2ccc(F)c(F)c2)n2c(-c3ccc(OC(F)F)cc3)nnc12 | 6860
62 | O=S(=O)(Cc1ccc(C(F)(F)F)cc1)Nc1cncc2nnc(-c3ccc(OC(F)F)cc3)n12 | 10000
63 | FC(F)Oc1ccc(-c2nnc3cncc(CCN4CCOCC4)n23)cc1 | 10000
64 | FC(F)Oc1ccc(-c2nnc3n2C(CCCc2ccccc2)CNC3)cc1 (configuration not stated) | 8760
65 | Nc1ncc(OCCc2ccc(F)c(F)c2)n2c(-c3ccc(OC(F)F)cc3)nnc12 | 10000
66 | FC(F)Oc1ccc(-c2nnc3cncc(CCN4Cc5ccccc5C4)n23)cc1 | 10000
67 | Fc1ccc(COCc2cncc3nnc(-c4ccc(OC(F)F)cc4)n23)cc1F | 360
68 | O=C(Nc1cccc(Cl)c1)c1cncc2nnc(-c3ccc(OC(F)F)cc3)n12 | 180
69 | O=C(NCc1cncc2nnc(-c3ccc(OC(F)F)cc3)n12)c1cccc(Cl)c1 | 10000
70 | FC(F)Oc1ccc(-c2nnc3cncc(Oc4ccc(Cl)cc4)n23)cc1 | 2960
71 | Fc1ccc(CCOc2cncc3ncc(-c4ccc(Cl)cc4)n23)cc1F | 110
72 | O=C(Nc1ccc(F)cc1)c1cncc2nnc(-c3ccc(OC(F)F)cc3)n12 | 3740
73 | O=C(Nc1ccc(Cl)cc1)c1cncc2nnc(-c3ccc(OC(F)F)cc3)n12 | 5000
74 | Fc1ccc(CCOc2cncc3cnc(-c4ccc(Cl)cc4)n23)cc1F | 830
75 | N#Cc1ccc(-c2nnc3cncc(OCC(OC(F)F)c4ccc(F)c(F)c4)n23)cc1 (configuration not stated) | 16.7
76 | FC(F)Oc1ccc(-c2nnc3cncc(OCC(F)(F)F)n23)cc1 | 10000
77 | CN[C@@H](COc1cncc2nnc(-c3ccc(OC(F)F)cc3)n12)c1ccc(F)c(F)c1 | 10000
78 | FC(F)Oc1ccc(-c2nnc3cncc(Oc4ccc(Cl)c(Cl)c4)n23)cc1 | 455
79 | O=C(Nc1ccc(F)c(Cl)c1)c1cncc2nnc(-c3ccc(OC(F)F)cc3)n12 | 191
80 | Fc1ccc(CCOc2cncc3nnc(-c4ccc(C(F)(F)F)nc4)n23)cc1F | 262
81 | O=C(Nc1ccnc(C(F)(F)F)c1)c1cncc2nnc(-c3ccc(OC(F)F)cc3)n12 | 140

Row | Compound | EC50 [nM]
82 | Fc1ccc(CCOc2cn3c(-c4ccc(OC(F)F)cc4)nnc3cn2)cc1F | 33.8
83 | Fc1ccc(COc2cn3c(-c4ccc(OC(F)F)cc4)nnc3cn2)cc1F | 521
84 | Fc1ccc(CNc2cn3c(-c4ccc(OC(F)F)cc4)nnc3cn2)cc1F | 10000
85 | Fc1ccc(C(COc2cncc3nnc(-c4ccc(OC(F)F)cc4)n23)N2CCOCC2)cc1F (configuration not stated) | 613
86 | FC(F)Oc1ccc(-c2nnc3cncc(Oc4ccc5c(c4)CCCC5)n23)cc1 | 2580
87 | FC(F)Oc1ccc(-c2nnc3cncc(Oc4ccc(Cl)c(C(F)(F)F)c4)n23)cc1 | 597
88 | N[C@@H](COc1cncc2nnc(-c3ccc(OC(F)F)cc3)n12)c1ccc(F)c(F)c1 | 278
89 | OC[C@H](Nc1cncc2nnc(-c3ccc(OC(F)F)cc3)n12)c1ccc(F)c(F)c1 | 570
90 | Fc1ccc(-c2cnn(-c3cncc4nnc(-c5ccc(OC(F)F)cc5)n34)c2)cc1F | 6720
91 | O=C(Nc1ccc(F)cc1Cl)c1cncc2nnc(-c3ccc(OC(F)F)cc3)n12 | 5580
92 | O=C(NCc1cccc(C(F)(F)F)c1Cl)c1cncc2nnc(-c3ccc(OC(F)F)cc3)n12 | 309
93 | Cc1nn(-c2ccc(F)cc2)c(C)c1-c1nnc2cncc(OCC(F)(F)F)n12 | 10000
94 | FC(F)Oc1ccc(-c2nnc3cncc(Oc4ccc(S(F)(F)(F)(F)F)cc4)n23)cc1 | 263
95 | Fc1ccc(Oc2cn3c(-c4ccc(OC(F)F)cc4)nnc3cn2)cc1F | 3450
96 | Fc1ccc([C@H]2[C@@H](Oc3cncc4nnc(-c5ccc(OC(F)F)cc5)n34)CN2C2CC2)cc1F | 610
97 | Cn1ccc2cc(Oc3cncc4nnc(-c5ccc(OC(F)F)cc5)n34)ccc21 | 1980
98 | O=C1[C@@H](Oc2cn3c(-c4ccc(OC(F)F)cc4)nnc3cn2)[C@@H](c2ccc(F)c(F)c2)N1C1CC1 | 10000
99 | FC(F)Oc1ccc(-c2nnc3cncc(Oc4ccc5ccc(C(F)(F)F)nc5c4)n23)cc1 | 1630
100 | Cc1noc2cc(Oc3cncc4nnc(-c5ccc(OC(F)F)cc5)n34)ccc12 | 1930
101 | CC1=CC(C)(C)Oc2cc(Oc3cncc4nnc(-c5ccc(OC(F)F)cc5)n34)ccc21 | 1820
102 | Cn1ncc2ccc(Oc3cncc4nnc(-c5ccc(OC(F)F)cc5)n34)cc21 | 10000
